In patent US20170009228A1, “BIOLOGICAL MATERIALS AND THERAPEUTIC USES THEREOF” (IMPERIAL INNOVATIONS LIMITED, priority 2014, published 2017):

Key:
[1] = system: RA synovial fibroblasts; test: Cytokine synthesis in RA synovial fibroblasts stimulated with tenascin-C, FBG or LPS; assay type: cell-based, human
Description: RA membrane cells (representing a mixed population of all synovial cell types) were isolated from synovial membranes obtained from patients undergoing joint replacement surgery as previously described (Brennan (1989)). RA synovial fibroblasts were isolated from the mixed population of RA membrane cells as previously described (Brennan (1989)). The study was approved by the local Trust ethics committee (Riverside NHS Research Committee), and waste tissue (synovium after joint replacement surgery) was obtained only after receiving signed informed consent from the patient and anonymyzing the tissue to protect patient identity.
(§1) Immediately after isolation, RA membrane cells and macrophages were cultured at 1×10^5 cells/well in RPMI 1640 containing 10% (v/v) FBS and 100 U/ml (Units/ml) penicillin/streptomycin in 96-well tissue culture plates for 24 hours before stimulation. Synovial fibroblasts (used only at either passage number 2 or 3) were cultured at 1×10^4 cells/well in DMEM containing 10% (v/v) FBS and 100 U/ml penicillin/streptomycin in 96-well tissue culture plates for 24 hours before stimulation.
(§2) Cells were incubated for 24 hours at 37° C. with the indicated doses of tenascin-C and recombinant tenascin-C fragments (1.0 μM-1.0 nM). Cells were also stimulated where indicated with LPS (1 ng/ml for human macrophages, 10 ng/ml for human fibroblasts, RA membrane cells and HEKs, 100 ng/ml for MEFS and BMDMs and 10 ng/ml for HEKS), PAM3 (10 ng/ml for human macrophages, human fibroblasts, and HEKs, 100 ng/ml for MEFs and BMDMs), murine IL-1 (5 ng/ml for MEFS) and murine TNF-α (100 ng/ml for MEFS). Unless specifically stated otherwise rough LPS was used for in vitro studies.
(§3) Supernatants were subsequently examined for the presence of the cytokines TNF-α, IL-6, and IL-8 by enzyme-linked immunosorbent assay (ELISA) according to the manufacturer's instructions. Absorbance was read on a spectrophotometric ELISA plate reader (Labsystems Multiscan Biochromic, Vantaa, Finland) and analyzed using the Ascent software program (Thermo Labsystems, Altrincham, UK).

[2] = system: serum from RA patients; test: Western blot of citrullinated tenascin-C probed with serum from RA patients or healthy controls; assay type: binding, human; conditions: sera from RA patients or normal healthy controls, not shown
Experimental: SDS PAGE of Citrullinated Proteins 33.33 ul of citrullination reaction (cit-TNC alone or cit-TNC combined with cit-FBG) was loaded into NuPAGE® Novex 4-12% Bis-tris gel using a 1.0 mm 2D single lane well.
After electrophoresis proteins were transferred to nitrocellulose and the membrane blocked and then cut into strips (up to 8 strips ˜0.7 cm wide). Strips were incubated with serum from RA patients or normal healthy individuals diluted 1:100 in 5% milk TBS-tween. Strips were incubated in 15 ml falcon tubes on rollers 1 h room temperature, then washed 3 ×5 min, 1×15 min in tubes with TBS-Tween. Strips were then incubated with secondary mouse anti-human Ig 1:5000 1 h in room temperature, then washed 3×5 min, 1×15 min in the dish with TBS-tween. Strips were finally incubated with ECL reagents and exposed to film.

[3] = system: primary human macrophages; test: Cytokine synthesis in primary human macrophages stimulated with tenascin-C or its domains; assay type: cell-based
Experimental: Human monocytes were isolated from peripheral blood (London Blood Bank) and macrophages were derived from monocytes after differentiation for 4 days with 100 ng/ml of M-CSF as previously described (Foxwell (1998)).
as §1, §2
(§4) Where stated, cells were pre-incubated with 10 μg/ml anti-CD14 antibody, 10 μg/ml IL1 receptor antagonist, 10 μg/ml anti-TLR2 antibody, 25 μg/ml anti-TLR4 antibody, 10 or 25 μg/ml isotype control antibody, 25 μg/ml polymyxin B, or 1 μg/ml msbB LPS, for 30 minutes at 37° C. before stimulation. Where stated, recombinant tenascin-C and FBG, and LPS were boiled for 15 minutes before addition to cells
as §3

[4] = system: IL-1; test: Addition of IL-1 receptor antagonist before FBG stimulation; assay type: cell-based; conditions: 10 μg/ml IL1 receptor antagonist, data not shown
Experimental: as §4, §3

FBG induction of cytokines [4]	Substance	IL-6 synthesis ([1]; RA synovial fibroblasts, 24 h)	TNF-α synthesis ([1]; fibroblasts, data not shown)	reactivity with sera in blots [2]	heat and polymyxin B sensitivity of cytokine stimulation ([3]; boiled 15 min, 25 μg/ml polymyxin B pre-incubation)	production of TNF-α, IL-6 and IL-8 ([3]; human macrophages, 24 h, 1.0 μM-1.0 nM)
–	tenascin-C: recombinant full-length human tenascin-C purified from HEK293 conditioned medium	only induced IL-6 synthesis	Neither LPS nor tenascin-C induced TNF-α synthesis	No reactivity	heat sensitive and unaffected by the LPS inhibitor, polymyxin B	dose dependently stimulated
did not inhibit	IL-1 receptor antagonist: IL-1 receptor antagonist from R&D Systems	–	–	–	–	–
